Test results reported in patent publication US8900626B2, “Transdermal drug delivery system and method of using the same” (Senju USA, Inc., priority 2011, dated 2014).
Where two headings read alike, the source gives them in different places.

Experimental: In vitro permeation study through hairless mouse skin to investigate the skin permeability of clobetasol propionate, amcinonide, betamethasone dipropionate, loteprednol etabonate, dexamethasone, prednisolone acetate and its metabolite (prednisolone).
Steroid patches were prepared according to the following procedure. The steroid (clobetasol propionate, amcinonide, betamethasone dipropionate, loteprednol etabonate, dexamethasone, or prednisolone acetate) was weighed in a clear polypropylene cup. 2 mL of ethyl acetate was added, and dispersed by ultrasonic wave using an ultrasonicator. DURO-TAK® 87-4098 was carefully added in the clear polypropylene cup. The components were mixed using a spatula, and then the lid of the cup was closed to avoid evaporation. A coating bar was adjusted to about 370 μm to control the thickness. The product material was carefully dispensed onto release liner near the coating bar. The coating process was started by moving the coating bar with the hand. The coated sheet was transferred to the oven and heated at 80° C. for 10±1 minutes. The dried sheet was removed from the oven, and laminated with the polyethylene terephthalate film. The thickness of the patch was checked.
The abdominal skin of 6 hairless, 8 week old, female mice were used for in vitro skin permeation experiment. (Horizontal cell, effective volume: 5 mL, effective area: 0.64 cm^2). […] The experimental temperature was controlled at 37° C., and 400 μL it of receptor solution was sampled at 1, 2, 3, 4, 5, 6, 9, 12, 22, 28, 34 and 48 hours. Thereafter, the same amount of the 40% polyethylene glycol 400 solution was added to the receptor cell. The concentration of each steroid in the sampled receptor solution was analyzed with HPLC.

[1] = female, hairless, mouse, 5 % (steroid in patch)

Row | SMILES | lag-time, times shorter than dexamethasone [1] [times] | lag-time, times shorter than prednisolone [1] [times] | steady-state penetration rate, times higher than that of dexamethasone [1] [times] | steady-state penetration rate, times higher than that of prednisolone [1] [times] | lag-time, times shorter than dexamethasone [times] | lag-time, times shorter than prednisolone [times] | steady-state penetration rate, times higher than that of dexamethasone [times] | steady-state penetration rate, times higher than that of prednisolone [times]
1 | CC(=O)OCC(=O)[C@@]12OC3(CCCC3)O[C@@H]1C[C@H]1[C@@H]3CCC4=CC(=O)C=C[C@]4(C)[C@@]3(F)[C@@H](O)C[C@@]12C [amcinonide] | 4 | 5 | 10 | 20 | – | – | – | –
2 | CCC(=O)OCC(=O)[C@@]1(OC(=O)CC)[C@@H](C)C[C@H]2[C@@H]3CCC4=CC(=O)C=C[C@]4(C)[C@@]3(F)[C@@H](O)C[C@@]21C [betamethasone, betamethasone dipropionate] | – | – | – | – | 3 | 4 | 3 | 6
3 | CCC(=O)O[C@]1(C(=O)CCl)[C@@H](C)C[C@H]2[C@@H]3CCC4=CC(=O)C=C[C@]4(C)[C@@]3(F)[C@@H](O)C[C@@]21C [clobetasol, clobetasol propionate] | 6 | 7 | 8 | 14 | – | – | – | –
4 | CCOC(=O)O[C@]1(C(=O)OCCl)CC[C@H]2[C@@H]3CCC4=CC(=O)C=C[C@]4(C)[C@H]3[C@@H](O)C[C@@]21C [loteprednol, loteprednol etabonate] | 4 | 5 | 7 | 12 | – | – | – | –
